Here are results for eight molecules from patent US20230416191A1, “Compounds, Compositions and Methods for the Treatment of CREB-dependent Diseases” (Sereno Sciences, Inc., priority 2022, published 2023).

Read-outs that look alike come from different tables or passages of the source.

The test system of data set [1] is CREB-mediated gene transcription. Put plainly: Inhibition of CREB-mediated gene transcription (CRE Renilla luciferase reporter, forskolin stimulated). Type of data set: cell-based. To be noted: HEK293T CRE luciferase reporter cells, forskolin 10 uM, 5 h. The procedure: The compounds were tested for their inhibition of CREB-mediated gene transcription according to the method described in Xie et al. J. Med. Chem. 2015, 58, 5075-5087. Generally, HEK293T cell transfected with luciferase reporter cell lines under CRE control were obtained from commercial sources. The cells were plated into 96-well plates (1-[…] cells/well). The cells were allowed to attach to the bottom of the wells overnight, when compounds of different concentrations were added to the cells. Forskolin (10 uM, LC Laboratories, Woburn, Mass.) was added 30 min after the addition of the compounds. The cells were then incubated at 37° C. for 5 h. The media in the wells were removed and the cells were then lysed in 30 µl of 1×Renilla luciferase lysis buffer (Promega, Madison, Wis.). To measure Renilla luciferase activity, five uL of the lysate was combined with 30 uI of benzyl-coelenterazine (Nanolight, Pinetop, Ariz.) solution in PBS (pH 7.4, 10 ug/mL). The sample protein concentration was determined by Dye Reagent Concentrate (Bio-Rad, Hercules, Calif). The Renilla luciferase activity was normalized to protein content in each well and expressed as relative luciferase unit/ug protein (RLU/ug protein). The IC50 was derived from non-linear regression analysis of the RLU/ug protein-concentration curve.
(In a reporter assay the amount or activity of a reporter protein is the signal.)

The subject of another data set is HL-60 cells. Kind of data set: AML xenograft model. The class given is in vivo. To be noted: HL-60 xenograft in NSG mice, 2 mg/kg IV daily. The protocol: For AML xenograft mouse experiments, HL-60 cells (2×10^6) expressing firefly luciferase and GFP are injected through the tail vein into 4-6 week old NOD. Cg-Prkdc^acid Il2rg^tmlWjlSzJ (NSG) mice. Mice are then treated with 2 mg/kg SRS-1006 or 10% DMSO, injected intravenously by tail vein daily seven days after AML cell injection, until death or an endpoint is reached (moribundity) in accordance with the animal care institutional guidelines. Leukemia progression in mice at the indicated time points is monitored using an in vivo IVIS 100 bioluminescenceoptical imaging system (Xenogen Corporation). D-Luciferin (Promega) dissolved in sterile phosphate-buffered saline was injected intraperitoneally at a dose of […], 15 minutes before measuring the luminescent signal. General anesthesia is induced with […] and continued during the procedure using a nose cone. Analysis is performed on Living Image In Vivo imaging software (Perkin-Elmer). Bone marrow is aspirated from bone marrow cavities, and GFP+cells is sorted using the FACSCalibur flow cytometer (BD Biosciences).

The nature of data set [2]: Mouse pharmacokinetics, plasma by LC-MS/MS. Type of data set: in vivo, mice (C57BL/6). To be noted: female C57BL/6 mice. The procedure: The compound was formulated in an aqueous solution containing 5% Tween-80, 10% DMSO. Female mice (C57BL/6) were given a single dose of the formulation at 5 mg/kg (IV), 10 mg/kg (IP) and 20 mg/kg (orally). At different time points (0.083, 0.25, 0.5, 1, 2, 4, 8, 24 h) post drug administration, blood was collected and the plasma was prepared. The samples were stored at −80° C. until analysis. The drug concentration in the plasma was analyzed by LC-MS/MS.

Another data set has as its system MCF-7. Put plainly: Cytotoxicity assay (Cell-titer-Glow, 72 hr). The class given is cell-based. As to conditions: Homo sapiens, MCF7; breast cancer line MCF-7, 72hr; read-out: IC50 for inhibition of MCF-7. The protocol:
(§1) The cells were obtained from ATCC, IMDM was obtained from Lonza, and FBS was obtained from Hyclone. Cell-titer-Glow for cytotoxicity was from Promega. Sterile 96-well tissue culture plates were from Corning. Different concentrations of the test compounds were tested in triplicate wells of either 96-well or 384-well tissue culture plates. The screening was repeated two additional times. The cells from ATCC were thawed, washed once with complete media, and cultured in T75 flask in a 37C CO2 incubator. Cell density was maintained between 5×10 5 to 1×10^6 cells/ml. Compounds were individually weighed and dissolved in DMSO to obtain 10 mM solutions of each and stored at −20° C. until used. To select concentrations of the compounds for cytotoxicity, all the compounds were initially tested at 100 μM and 30 μM in a 48 hr cytotoxicity assay. Two microliter of each concentration of the test compounds were transferred into triplicate wells of a 96-well tissue culture plate. Into each well 100 μof the cell suspension was added, the plate was lidded and incubated at 37° C. in a 5% CO2 incubator maintained at 95% humidity After 72hr of incubation, the plate was removed from the incubator, and the cell viability was determined using Cell-titer-glow reagent as per the protocol described in the kit manual. Signals from the plate was measured using Victor-II plate reader. The raw data from the plate reader were exported to Excel. For each concentration of the drug tested the average signal and SD from the triplicate wells, as well as the percent cytotoxicity were calculated. The resulting data were exported to Prism-graph-pad, the % cytotoxicity was plotted against log concentration and the resulting curves were fitted using non-linear dose response fit and the resulting IC50 values were extracted.

The next data set concerns MV-411. Put plainly: Cytotoxicity assay (Cell-titer-Glow, 72 hr). The class given is cell-based. As to conditions: Homo sapiens, MV4-11; leukemia cell line MV-411, 72hr; read-out: IC50 for inhibition of MV-411. The protocol: as §1
The next data set concerns Hep3B. Kind of data set: Cytotoxicity assay (Cell-titer-Glow, 72 hr). The class given is cell-based. To be noted: Homo sapiens, Hep3B cells, read-out: IC50 for inhibition of Hep3B. The procedure:
as §1

The next data set deals with NaLM6. Put plainly: Cytotoxicity assay (Cell-titer-Glow, 72 hr). Type of data set: cell-based. To be noted: Homo sapiens, NALM-6; leukemia cell line NaLM6, 72hr; read-out: IC50 for inhibition of NaLM6. The procedure:
as §1

In another data set the test system is KG-1. Put plainly: Cytotoxicity assay (Cell-titer-Glow, 72 hr). The class given is cell-based. To be noted: Homo sapiens; leukemia cell line KG-1, 72hr; read-out: IC50 for inhibition of KG-1. The procedure: as §1
For another data set, the system named is A549. Kind of data set: Cytotoxicity assay (Cell-titer-Glow, 72 hr). The class given is cell-based. To be noted: Homo sapiens, A549 cells, read-out: IC50 for inhibition of A549. The protocol:
as §1

The subject of another data set is MiaPaCa2. Put plainly: Cytotoxicity assay (Cell-titer-Glow, 72 hr). Type of data set: cell-based. To be noted: Homo sapiens, MIA PaCa-2, MiaPaCa2 cells, read-out: IC50 for inhibition of MiaPaCa2. The protocol: as §1
For the next data set, the system named is HL-60. Put plainly: Cytotoxicity assay (Cell-titer-Glow, 72 hr). As to conditions: Homo sapiens; leukemia cell line HL-60, 72hr; read-out: IC50 for inhibition of HL-60. The class given is cell-based. The procedure: as §1
Another data set has as its system BT-474. Kind of data set: Cytotoxicity assay (Cell-titer-Glow, 72 hr). As to conditions: Homo sapiens; breast cancer line BT-474, 72hr; read-out: IC50 for inhibition of BT-474. Type of data set: cell-based. The protocol: as §1
A further data set has as its system Hs587T. Put plainly: Cytotoxicity assay (Cell-titer-Glow, 72 hr). Type of data set: cell-based. To be noted: breast cancer line Hs587T, read-out: IC50 for inhibition of Hs587T. The procedure:
as §1

For data set [3] the following is noted: in vivo; cited from earlier work.

One may read the IC50 as the concentration needed to halve the response being measured. By bioavailability is commonly meant the share of a dose that reaches the circulation, judged against a reference dose that is usually intravenous.

Turning to `NCCCOc1cc2ccccc2cc1C(=O)NCCOc1cc2ccccc2cc1C(=O)Nc1c(F)cccc1F` [SRS-1007], the IC50 in [1] was determined as 0.41 µM; in data set [1] (Homo sapiens, HEK-293T), 0.45 µM.

The molecule `NCCCOc1cc2ccccc2cc1C(=O)NCCOc1cc2ccccc2cc1C(=O)Nc1ccc(Cl)cc1Cl` [SRS-1005] had a concentration for half-maximal inhibition (IC50) in [1] (Homo sapiens, HEK-293T) of 1.55 µM.

In turn, `NCCCOc1cc2ccccc2cc1C(=O)NCCOc1cc2ccccc2cc1C(=O)Nc1ccccc1` [SRS-1001] gave an IC50 in [1] (Homo sapiens, HEK-293T) of 1.26 µM.

For `NCCCOc1cc2ccccc2cc1C(=O)NCCOc1cc2ccccc2cc1C(=O)Nc1ccc(F)cc1` [SRS-1003], the IC50 in data set [1] (Homo sapiens, HEK-293T) is 0.41 µM.

`Cl.NCCCOc1cc2ccccc2cc1C(=O)NCCOc1cc2ccccc2cc1C(=O)Nc1ccccc1F` [SRS-1006]: the “median survival in Kaplan-Meier analysis” value in the data set on HL-60 cells was “significantly prolonged”. The “disease burden by bioluminescence imaging” value in the data set on HL-60 cells (compared to control) is reported as “less disease burden”. Moreover, the IC50 in data set [1] (Homo sapiens, HEK-293T) was 0.18 µM; with MCF-7, 1.47 µM; in the data set on MV-411 it was 0.99 µM; with Hep3B it was 1.46 µM; in the data set with NaLM6, 0.97 µM; with KG-1 it was 3.39 µM. Also, the IC50 with A549 turned out to be 1.49 µM; with MiaPaCa2, 1.7 µM; in the data set with HL-60, 0.65 µM; in the data set on BT-474, 5.21 µM; in the data set on Hs587T, 3.69 µM. Moreover, the bioavailability stood at 100% in data set [2] (single dose 5 mg/kg IV, read-out: IV bioavailability); 100% in data set [2] (single dose 10 mg/kg IP, read-out: IP bioavailability); 67% in [2] (po, single dose 20 mg/kg orally, read-out: oral bioavailability).

Take `NCCCOc1cc2ccccc2cc1C(=O)NCCOc1cc2ccccc2cc1C(=O)Nc1ccc(Cl)cc1` [SRS-1002]: the IC50 in [1] (Homo sapiens, HEK-293T) was 1.55 µM.

Molecule `N#Cc1ccc(NC(=O)c2cc3ccccc3cc2OCCNC(=O)c2cc3ccccc3cc2OCCCN)cc1` [SRS-1004] returned an IC50 in [1] (Homo sapiens, HEK-293T) of 1.2 µM.

With `O=C(Nc1ccc(Cl)cc1)c1cc2ccccc2cc1O` [napththol AS-E, naphthol AS-E], the bioavailability entry in [3] is “low”.
